Results on 4 molecules are retold here after PMC12616515, “Thermostable Bacterial Esterases From Lipase Family 1.5 Degrade Compostable Polyesters PBAT and PBSA” (MicrobiologyOpen, 2025).

For one assay, the target named is T1, Cl_EstA (Clostridium botulinum, UniProt A5I055).
T1 construct: gene lipA

For the next assay, the target named is T2, Tl_Est64 (Thermosyntropha lipolytica, UniProt A0A1M5LUW5).
T2 construct: gene SAMN02745221_00755
T2 sequence (A0A1M5LUW5 29-416): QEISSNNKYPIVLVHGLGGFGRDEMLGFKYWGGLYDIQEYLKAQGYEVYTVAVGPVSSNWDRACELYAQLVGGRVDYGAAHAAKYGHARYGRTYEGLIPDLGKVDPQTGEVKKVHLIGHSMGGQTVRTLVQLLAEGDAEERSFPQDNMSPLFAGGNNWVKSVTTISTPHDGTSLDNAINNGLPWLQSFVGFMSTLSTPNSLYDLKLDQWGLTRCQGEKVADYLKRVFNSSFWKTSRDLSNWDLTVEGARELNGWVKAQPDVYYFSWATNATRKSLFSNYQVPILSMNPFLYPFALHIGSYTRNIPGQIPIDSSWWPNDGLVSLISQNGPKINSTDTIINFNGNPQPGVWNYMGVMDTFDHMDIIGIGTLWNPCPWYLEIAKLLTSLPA
The assay can be described thus: pNP release, absorbance […] nm. The format is biochemical.

For the next assay, the target named is T3, Dt_Est (Desulfurispora thermophila, UniProt Z9TUI6NBX6).
T3 sequence (Z9TUI6NBX6 32-423): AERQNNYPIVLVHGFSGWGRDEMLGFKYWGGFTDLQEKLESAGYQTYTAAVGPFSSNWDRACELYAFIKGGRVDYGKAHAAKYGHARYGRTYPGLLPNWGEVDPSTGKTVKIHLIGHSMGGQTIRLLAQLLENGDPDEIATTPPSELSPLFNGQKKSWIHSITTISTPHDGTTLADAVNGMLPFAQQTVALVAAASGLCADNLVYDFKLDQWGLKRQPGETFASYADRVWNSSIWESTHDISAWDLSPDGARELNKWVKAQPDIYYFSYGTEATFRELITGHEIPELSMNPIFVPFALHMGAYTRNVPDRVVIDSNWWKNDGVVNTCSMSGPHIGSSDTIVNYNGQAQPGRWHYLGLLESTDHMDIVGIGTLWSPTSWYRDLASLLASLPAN
The experiment in a line: pNP release, absorbance […] nm. The format is biochemical.

T1 sequence (A5I055 1-480): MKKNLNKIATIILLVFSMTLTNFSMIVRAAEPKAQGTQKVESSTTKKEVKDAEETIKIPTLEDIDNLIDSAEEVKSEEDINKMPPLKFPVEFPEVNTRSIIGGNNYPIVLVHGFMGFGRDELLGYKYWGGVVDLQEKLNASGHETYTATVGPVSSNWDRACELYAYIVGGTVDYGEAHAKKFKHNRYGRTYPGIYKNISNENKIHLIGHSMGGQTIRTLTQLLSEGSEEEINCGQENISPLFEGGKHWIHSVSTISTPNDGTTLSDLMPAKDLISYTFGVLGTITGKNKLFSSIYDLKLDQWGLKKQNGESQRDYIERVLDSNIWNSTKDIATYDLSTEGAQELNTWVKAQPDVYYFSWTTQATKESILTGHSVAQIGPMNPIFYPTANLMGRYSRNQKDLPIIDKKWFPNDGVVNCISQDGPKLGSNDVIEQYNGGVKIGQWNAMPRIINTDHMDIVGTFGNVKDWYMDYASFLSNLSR

Take `CC(=O)Oc1ccc([N+](=O)[O-])cc1` [pNP acetate]: at Cl_EstA, the “pNP release, absorbance 405 nm” value was “except Cl_EstA, which had the best activity with pNP acetate”.

As for `CCCCC(=O)Oc1ccc([N+](=O)[O-])cc1` [pNP valerate], the “pNP release, absorbance 405 nm” value on Tl_Est64 was “Tl_Est64 showed the highest overall activity with the substrates pNP butyrate and pNP valerate”.

With `CCCCCCCC(=O)Oc1ccc([N+](=O)[O-])cc1` [pNP octanoate], the “pNP release, absorbance 405 nm” value on Dt_Est was “Dt_Est showed the highest activity with pNP octanoate”.

Consider `CCCC(=O)Oc1ccc([N+](=O)[O-])cc1` [pNP butyrate], for which the “pNP release, absorbance 405 nm” value at Tl_Est64 was “Tl_Est64 showed the highest overall activity with the substrates pNP butyrate and pNP valerate”.
